Values quoted from earlier work in PMC11679033, “Assessing the Potential Synergistic/Antagonistic Effects of Citrinin and Cannabidiol on SH-SY5Y, HepG2, HEK293 Cell Lines, and Human Lymphocytes” (Toxins, 2024).

Tests used:
human TK6 cells = test system: human TK6 cells; parameters: method as in PMID 37105391; conditions: up to 10–11 μg/mL, with and without metabolic activation; cited from earlier work
[1] = test system: buccal-derived cells (TR146); parameters: method as in PMID 30341733; conditions: cited from earlier work
[2] = parameters: method as in PMID 38908200; conditions: 24 h exposure to CBD samples; cited from earlier work
[3] = test system: human liver cell line (HepG2); parameters: method as in PMID 30341733; conditions: cited from earlier work
HEK293 cells = test system: HEK293 cells; parameters: method as in PMID 13678658; conditions: HEK293, concentrations ≤60 μM for 24 h; cited from earlier work
[4] = test system: cultured human lymphocytes; parameters: method as in PMID 17265422; conditions: 48 h exposure, 60–100 μM; cited from earlier work
HepG2 cells = conditions: cited from earlier work
A549 cells = test system: A549 cells; parameters: method as in PMID 39057961; conditions: A549, 24 h, sub-IC50 and near IC50 concentrations; cited from earlier work

| SMILES | genotoxic hazard (human TK6 cells) | level above which damage was found in MN assay [1] | genomic instability estimated by CBMN Cyt Assay [2] | level above which damage was found in MN assay [3] | toxic effect in Fpg-modified comet assay (HEK293 cells) | induction of MNi vs negative controls [4] | DNA damage in comet assay (HepG2 cells; HepG2, 24 h, sub-IC50 and near IC50 concentrations) | genotoxicity in comet assay (HepG2 cells; HepG2) | DNA damage in comet assay (A549 cells) |
| --- | --- | --- | --- | --- | --- | --- | --- | --- | --- |
| C=C(C)[C@@H]1CCC(C)=C[C@H]1c1c(O)cc(CCCCC)cc1O [CBD, cannabidiol] | did not pose a genotoxic hazard | above 0.2 µM | no changes in genomic instability | above 0.2 µM |  |  |  |  |  |
| CC1=C2C(=CO[C@H](C)[C@H]2C)C(O)=C(C(=O)O)C1=O [CIT, citrinin] |  |  |  |  | did not show toxic effect | significant induction of MNi | induced significant DNA damage | no significant genotoxicity | induced significant DNA damage |
